From patent US4061862A, “Derivatives of 7-(cyclized)phenylglycyl-3-triazolo-thio methyl cephalosporin” (priority 1976, dated 1977)
In brackets after ≈: the same amount, converted by molar mass. Where two headings read alike, the source gives them in different places.

What was measured:
[1] = Mouse blood levels after IM administration; format: in vivo; settings: IM 10 mg./kg.
Protocol: Mouse Blood Levels after IM
Administration of 10 mg./kg. Body Weight
Blood Levels (mcg./ml.)
(§1) The compounds were prepared in 0.01% phosphate buffer. BL-S640 was used a
(§2) standard for all compounds.

K. pneumoniae A9977 = assay: Antibiotic spectrum in nutrient broth, MIC; format: cell-based; settings: Klebsiella pneumoniae, 10^-4 dilution, BL-S1052 adjusted for 97.5% content of BL-S640
Source text: (§3) Antibiotic Spectrum in Nutrient Broth
(§4) **Dilution of overnight broth culture.
(§5) ^(1) Adjusted for 97.5% content of BL-S640. In other words, the
(§6) numerical values are lowered, i.e. improved. This adjustment was also mad
(§7) in the tests reported below or in the alternative, a larger weight was
(§8) used to provide equivalent dosage.

Ser. marcescens A20019 = assay: Antibiotic spectrum in nutrient broth, MIC; format: cell-based; settings: Serratia marcescens, 10^-4 dilution, BL-S1052 adjusted for 97.5% content of BL-S640
Source text: as §3, §4, §5, §6, §7, §8

E. coli Juhl A15119 = assay: Antibiotic spectrum in nutrient broth, MIC; format: cell-based; settings: Escherichia coli, JUHLA15119; 10^-4 dilution; BL-S1052 adjusted for 97.5% content of BL-S640
Source text: as §3, §4, §5, §6, §7, §8

Pr. mirabilis A9900 = assay: Antibiotic spectrum in nutrient broth, MIC; format: cell-based; settings: Proteus mirabilis, 10^-4 dilution, BL-S1052 adjusted for 97.5% content of BL-S640
Source text: as §3, §4, §5, §6, §7, §8

S. aureus Smith A9537 = assay: Antibiotic spectrum in nutrient broth, MIC; format: cell-based; settings: Staphylococcus aureus, BL-S1052 adjusted for 97.5% content of BL-S640
Source text: as §3, §4, §5, §6, §7, §8

Sal. enteritidis A9531 = assay: Antibiotic spectrum in nutrient broth, MIC; format: cell-based; settings: Salmonella enterica, 10^-4 dilution, BL-S1052 adjusted for 97.5% content of BL-S640
Source text: as §3, §4, §5, §6, §7, §8

Ps. Aeruginosa A9843A = assay: Antibiotic spectrum in nutrient broth, MIC; format: cell-based; settings: Pseudomonas aeruginosa
Source text: as §3, §4, §5, §6, §7, §8

[2] = system: S. aureus Meth-Res A15097; assay: Antibiotic spectrum in nutrient broth, MIC; format: cell-based; settings: Staphylococcus aureus; 10^-3 dilution; BL-S1052 adjusted for 97.5% content of BL-S640
Source text: as §3, §4, §5, §6, §7, §8

E. coli A9675 = assay: Antibiotic spectrum in nutrient broth, MIC; format: cell-based; settings: Escherichia coli, 10^-4 dilution, BL-S1052 adjusted for 97.5% content of BL-S640
Source text: as §3, §4, §5, §6, §7, §8

Ent. cloacae A9656 = assay: Antibiotic spectrum in nutrient broth, MIC; format: cell-based; settings: Enterobacter cloacae, 10^-4 dilution, BL-S1052 adjusted for 97.5% content of BL-S640
Source text: as §3, §4, §5, §6, §7, §8

K. pneumoniae A15130 = assay: Antibiotic spectrum in nutrient broth, MIC; format: cell-based; settings: Klebsiella pneumoniae, 10^-4 dilution, BL-S1052 adjusted for 97.5% content of BL-S640
Source text: as §3, §4, §5, §6, §7, §8

Ent. cloacae A9657 = assay: Antibiotic spectrum in nutrient broth, MIC; format: cell-based; settings: Enterobacter cloacae, 10^-4 dilution, BL-S1052 adjusted for 97.5% content of BL-S640
Source text: as §3, §4, §5, §6, §7, §8

[3] = Urinary recovery after IM administration to rats; format: in vivo; settings: rat, urine, read-out: Urinary recovery, percentage of administered dose recovered; for dose excreted at 6 h: 0-6 hr
Protocol: Urinary Recovery after IM
Administration of 50 and 10 mg./kg. to Rats
as §1, §2

[4] = Paper chromatograms of rat urine for antibiotically active metabolites after IM administration; format: in vivo; settings: rat urine 0-2 and 2-4 hours; for Antibiotically active spots in urine: paper chromatography system No. 9
Protocol: Paper chromatograms were run on rat urine collected between 0 and 2 and between 2 and 4 hours, following IM administration of BL-S1052 and BL-S640, for the detection of antibiotically active metabolites using descending chromatography with system No. 9 (butyl acetate:n-butanol:glacial acetic acid:H2 O = 80:15:40:24).

Str. pyogenes A9604 = assay: Antibiotic spectrum in nutrient broth, MIC; format: cell-based; settings: Streptococcus pyogenes, 10^-3 dilution of overnight culture, 45% AAB + 5% serum + 50% broth, BL-S1052 adjusted for 97.5% content of BL-S640
Source text: as §3
(§9) *45% AAB + 5% serum + 50% broth listed above.
as §4, §5, §6, §7, §8

S. pneumoniae A9585 = assay: Antibiotic spectrum in nutrient broth, MIC; format: cell-based; settings: Streptococcus pneumoniae, 10^-3 dilution of overnight culture, 45% AAB + 5% serum + 50% broth, BL-S1052 adjusted for 97.5% content of BL-S640
Source text: as §3, §9, §4, §5, §6, §7, §8

[5] = Mouse blood levels after PO administration; format: in vivo; settings: PO 100 mg./kg.
Protocol: ______________________________________
Mouse Blood Levels after PO
Administration of 100 mg./kg. Body Weight
The compounds were prepared in Tween-CMC. BL-S640 was used as standard fo

Ent. cloacae A9659 = assay: Antibiotic spectrum in nutrient broth, MIC; format: cell-based; settings: Enterobacter cloacae, 10^-4 dilution, BL-S1052 adjusted for 97.5% content of BL-S640
Source text: as §3, §4
(§10) This adjustment was also mad
as §7, §8

S. aureus BX1633 = assay: Antibiotic spectrum in nutrient broth, MIC; format: cell-based; settings: Staphylococcus aureus
Source text: as §3, §4, §10, §7, §8

Pr. morganii A15153 = assay: Antibiotic spectrum in nutrient broth, MIC; format: cell-based; settings: Morganella morganii, 10^-4 dilution, BL-S1052 adjusted for 97.5% content of BL-S640
Source text: as §3, §4, §10, §7, §8

[6] = Liquid chromatography, % free BL-S640 present (hydrolysis in solution); format: physicochemical; settings: 1 mg./ml.
Protocol: 5. Liquid Chromatography (concentration = 1 mg./ml.)
Time in Hours % Free BL-S640 Present

Bio-assay (mcg./mg.) = assay: Bio-assay (mcg./mg.)
Protocol: 7-[D-α-amino-α-(p-hydroxyphenyl)acetamido]-3-(1,2,3-triazol-5-ylthiomethyl)-3-cephem-4-carboxylic acid methanol solvate (15 g.) was slurried in 60 ml. of water. The pH was raised to 6.5 by addition of 4N NaOH and the mixture was passed through a 200 mesh screen. The reaction mixture was slurried at room temperature for 2 hours, the pH being maintained at 6.5 during this period. The crystals were removed by filtration, washed with 20 ml. of water and air dried at 37° C. for 24 hours to give 11.5 g. of title crystalline product. Bio assay = 924 mcg./mg. (average % H2 O, K.F. = 5.26).
7-[D-α-amino-α-(p-hydroxyphenyl)acetamido]-3-(1,2,3-triazol-5-ylthiomethyl)-3-cephem-4-carboxylic acid methanol solvate (200 mesh; 10.0 g.) substantially free of propylene glycol is slurried in 30-40 ml. of deionized water at ambient room temperature (20°-25° C.) to give a pH 3-4 aqueous suspension. NaOH (40%) is slowly added with rapid stirring to bring the pH to 6.3-6.7. The mixture is slurried at pH 6.3-6.7 for 2 hours. The crystals are removed by filtration, washed with water and air dried at room temperature for 24 hours to give a 75-80% weight yield of 950-1000 mcg./mg. crystals of 7-[D-α-amino-α-(p-hydroxyphenyl)acetamido]-3-(1,2,3-triazol-5-ylthiomethyl)-3-cephem-4-carboxylic acid dihydrate. […] H2 O, K.F. = 6.56.

Water solubility = format: physicochemical
Protocol: The sodium and potassium salts of formula I may be dissolved in water to form relatively concentrated solutions of at least 250 mg./ml. of activity. Concentrations of 250 mg./ml. of activity (pH 5.7-7.2) of these salts have acceptable aqueous stabilities.
g. Water solubility = Approximately 10 mg./ml. in water at 23° C.
3. Solubility = greater than 400 mg./ml.

[7] = SMITHA9537, 10^-4 dilution, nutrient broth
[8] = SMITHA9537, +50% serum, 10^-4 dilution
[9] = 10 mg/kg, IM 10 mg./kg., 0-24 hr
[10] = 10 mg/kg, IM 10 mg./kg., 6-24 hr
[11] = 50 mg/kg, IM 50 mg./kg., 0-24 hr
[12] = 50 mg/kg, IM 50 mg./kg., 6-24 hr
[13] = BX1633, 10^-2 dilution, A9606, BL-S1052 adjusted for 97.5% content of BL-S640, read-out: MIC

Row | SMILES | concentration at 0.25 h [1] | concentration at 0.5 h [1] | concentration at 1 h [1] | concentration at 1.5 h [1] | MIC (K. pneumoniae A9977) | MIC (Ser. marcescens A20019) | MIC (E. coli Juhl A15119) | MIC (Pr. mirabilis A9900) | MIC (S. aureus Smith A9537; [7]) | MIC (S. aureus Smith A9537; [8]) | MIC (Sal. enteritidis A9531) | MIC (Ps. Aeruginosa A9843A) | MIC [2] | MIC (E. coli A9675) | MIC (Ent. cloacae A9656) | MIC (K. pneumoniae A15130) | MIC (Ent. cloacae A9657) | dose excreted at 6 h ([3]; 10 mg/kg, IM 10 mg./kg.) | dose excreted at 24 h [3, 9] | dose excreted at 24 h [3, 10] | also measured
1 | N[C@@H](C(=O)N[C@@H]1C(=O)N2C(C(=O)O)=C(CSc3c[nH]nn3)CS[C@H]12)c1ccc(O)cc1 [BL-S640, 7-[D-α-amino-α-(p-hydroxyphenyl)acetamido]-3-(1,2,3-triazol-5-ylthiomethyl)-3-cephem-4-carboxylic acid] | 15700 ng/mL | 13200 ng/mL | 9500 ng/mL | 6800 ng/mL | 0.5 µg/mL (≈ 1.08 µM) | > 125 µg/mL | 0.5 µg/mL (≈ 1.08 µM) | 0.5 µg/mL (≈ 1.08 µM) | 0.13 µg/mL (≈ 0.281 µM) | 2 µg/mL (≈ 4.32 µM) | 0.25 µg/mL (≈ 0.541 µM) | > 125 µg/mL | 8 µg/mL (≈ 17.3 µM) | 2 µg/mL (≈ 4.32 µM) | > 125 µg/mL | 1 µg/mL (≈ 2.16 µM) | 0.5 µg/mL (≈ 1.08 µM) | 24.3% | 25.7% | 1.4% | dose excreted at 6 h ([3]; 50 mg/kg, IM 50 mg./kg.): 44.5%; dose excreted at 24 h [3, 11]: 47.2%; dose excreted at 24 h [3, 12]: 2.7%; Antibiotically active spots in urine [4]: Two spots identically located; MIC (Str. pyogenes A9604): 0.03 µg/mL; MIC (S. pneumoniae A9585): 0.06 µg/mL; concentration at 0.5 h [5]: 53400 ng/mL; concentration at 1 h [5]: 45400 ng/mL; concentration at 2 h [5]: 27200 ng/mL; concentration at 3.5 h [5]: 10700 ng/mL; MIC (Ent. cloacae A9659): 32 µg/mL (≈ 69.2 µM); MIC (S. aureus BX1633; [13]): 4 µg/mL (≈ 8.65 µM); MIC (S. aureus BX1633; BX1633, 10^-3 dilution, A9696, BL-S1052 adjusted for 97.5% content of BL-S640, read-out: MIC): 0.25 µg/mL (≈ 0.541 µM); MIC (Pr. morganii A15153): 32 µg/mL (≈ 69.2 µM)
2 | O=C(O)C1=C(CSc2c[nH]nn2)CSC2C(N3C(=O)C(c4ccc(O)cc4)NC3c3ccco3)C(=O)N12 (centres unmarked) [BL-S1052] | 15100 ng/mL | 15100 ng/mL | 11500 ng/mL | 7800 ng/mL | 0.5 µg/mL (≈ 0.925 µM) | > 125 µg/mL | 1 µg/mL (≈ 1.85 µM) | 0.5 µg/mL (≈ 0.925 µM) | 0.13 µg/mL (≈ 0.24 µM) | 2 µg/mL (≈ 3.7 µM) | 0.13 µg/mL (≈ 0.24 µM) | > 125 µg/mL | 4 µg/mL (≈ 7.4 µM) | 2 µg/mL (≈ 3.7 µM) | > 125 µg/mL | 1 µg/mL (≈ 1.85 µM) | 0.5 µg/mL (≈ 0.925 µM) | 21.7% | 24.1% | 2.4% | % Free BL-S640 Present ([6]; 0 hours): 69.2%; % free BL-S640 present at 1 h ([6]; 1 hour): 74.2%; % free BL-S640 present at 2 h ([6]; 2 hours): 94.5%; Bio-assay (Bio-assay (mcg./mg.)): 775 to 800 µg/mg; dose excreted at 6 h ([3]; 50 mg/kg, IM 50 mg./kg.): 40.3%; dose excreted at 24 h [3, 11]: 42.4%; dose excreted at 24 h [3, 12]: 2.1%; Hydrolysis of the derivative to parent compound BL-S640 and its presumed metabolite [4]: complete hydrolysis; Antibiotically active spots in urine [4]: Two spots identically located; MIC (Str. pyogenes A9604): 0.03 µg/mL; MIC (S. pneumoniae A9585): 0.06 µg/mL; solubility (Water solubility): > 400 mg/mL; concentration at 0.5 h [5]: 45200 ng/mL; concentration at 1 h [5]: 48100 ng/mL; concentration at 2 h [5]: 31900 ng/mL; concentration at 3.5 h [5]: 14400 ng/mL; MIC (Ent. cloacae A9659): 32 µg/mL (≈ 59.2 µM); MIC (S. aureus BX1633; BX1633): 0.25 µg/mL (≈ 0.462 µM); MIC (S. aureus BX1633; [13]): 2 µg/mL (≈ 3.7 µM); MIC (Pr. morganii A15153): 32 µg/mL (≈ 59.2 µM)
